From ChEMBL document CHEMBL4842322, “A naphthalimide-polyamine conjugate preferentially accumulates in hepatic carcinoma metastases as a lysosome-targeted antimetastatic agent” (Eur J Med Chem, 2021)
Activity calls are given as the source filed them. The rule behind the calls is not given here.

Columns and labels:
[1] = Ratio of amonafide IC50 to test compound IC50 for human MDA-MB-231 cells by MTT assay; type: functional
[2] = Antimetastatic activity against human HCC cells xenografted in BALB/c mouse assessed as reduction lung metastatic nodules at 3 mg/kg, iv administered once every 2 days for 14 days; type: functional; settings: 336 h, time 14 day
HepG2 [3] = experiment: Cytotoxicity against human HepG2 cells assessed as inhibition of cell growth incubated for 48 hrs by MTT assay; type: functional, cell-based; settings: HepG2, 48 h
A549 [4] = experiment: Inhibition of tumor metastasis in cisplatin-resistant human A549 cells assessed as upregulation of p53 expression level at 5 to 15 uM measured after 24 hrs by western blot analysis; type: functional, cell-based; settings: dose 5-15 µM
[5] = Toxicity in BALB/c mouse xenografted with human HCC cells assessed as body weight at 1 to 5 mg/kg, iv administered once daily for 7 days; type: organism-based; settings: in vivo, 168 h, dose 1-5 mg/kg, time 7 day
[6] = Ratio of cisplatin IC50 to test compound IC50 for human A549 cells by MTT assay; type: functional
[7] = Potency index, ratio of cisplatin IC50 to test compound IC50 for cisplatin-resistant human A549 cells by MTT assay; type: functional
HepG2 [8] = experiment: Induction of apoptosis in human HepG2 cells assessed as induction of DNA damage by measuring upregulation of gammaH2AX expression at 5 to 15 uM; type: functional, cell-based; settings: dose 5-15 µM
Huh-7 [9] = experiment: Cytotoxicity against human Huh-7 cells assessed as reduction in cell viability at 5 to 15 uM incubated for 24 hrs in presence of polyamine transporter inhibitor, Spd by MTT assay; type: functional, cell-based; settings: dose 5-15 µM
A549 [10] = experiment: Inhibition of tumor metastasis in cisplatin-resistant human A549 cells assessed as upregulation of p62 protein expression level at 5 to 15 uM measured after 24 hrs by western blot analysis; type: functional, cell-based; settings: dose 5-15 µM
A549 [11] = experiment: Cytotoxicity against cisplatin-resistant human A549 cells assessed as inhibition of cell growth incubated for 48 hrs by MTT assay; type: functional, cell-based; settings: A549, 48 h
[12] = Selectivity index, ratio of IC50 for human HL7702 cells to IC50 for human Huh-7 cells; type: toxicity; settings: HL7702 cells and Huh-7 cells, read-out: Ratio IC50
HepG2 [13] = experiment: Downregulation of Putrescine contents in human HepG2 cells measured after 24 hrs by HPLC analysis; type: functional, cell-based
[14] = Upregulation of PAO expression in human Huh-7 cells at 10 uM measured after 24 hrs relative to control; type: functional
Huh-7 [15] = experiment: Downregulation of Spermine contents in human Huh-7 cells measured after 24 hrs by HPLC analysis; type: functional, cell-based
[16] = Ratio of amonafide IC50 to test compound IC50 for human MCF7 cells by MTT assay; type: functional
[17] = Drug uptake in endoplasmic reticulum of human HepG2 cells at 10 uM incubated for 8 hrs by ER-tarcker dye based laser confocal microscopy; type: ADME, subcellular; settings: hepg2, 8 h
Huh-7 [18] = experiment: Potency index, ratio of amonafide IC50 to test compound IC50 for human Huh-7 cells by MTT assay; type: functional
Huh-7 [19] = experiment: Potency index, ratio of cisplatin IC50 to test compound IC50 for human Huh-7 cells by MTT assay; type: functional
A549 [20] = experiment: Inhibition of tumor metastasis in cisplatin-resistant human A549 cells assessed as downregulation of LC3-II protein expression level at 5 to 15 uM measured after 24 hrs by western blot analysis; type: functional, cell-based; settings: dose 5-15 µM
[21] = Resistance factor, ratio of IC50 for cisplatin-resistant human A549 cells to IC50 for human A549 cells; type: functional
Huh-7 [22] = experiment: Downregulation of Putrescine contents in human Huh-7 cells measured after 24 hrs by HPLC analysis; type: functional, cell-based
A549 [23] = experiment: Inhibition of tumor metastasis in cisplatin-resistant human A549 cells assessed as upregulation of LC3-I protein expression level at 5 to 15 uM measured after 24 hrs by western blot analysis; type: functional, cell-based; settings: dose 5-15 µM
[24] = Drug uptake in lysosomes of human HepG2 cells at 10 uM incubated for 8 hrs by Lyso-tracker dye based laser confocal microscopy; type: ADME, subcellular, Lysosome; settings: hepg2, 8 h
[25] = Ratio of amonafide IC50 to test compound IC50 for cisplatin-resistant human A549 cells by MTT assay; type: functional
[26] = Toxicity in BALB/c mouse xenografted with human HCC cells assessed as effect on heart weight index at 1 to 5 mg/kg, iv administered once daily for 7 days; type: organism-based; settings: in vivo, 168 h, dose 1-5 mg/kg, time 7 day
[27] = Antitumor activity against human HCC cells xenografted in BALB/c mouse assessed as inhibition of tumor weight at 3 mg/kg, iv administered once daily for 7 days; type: functional; settings: 168 h, time 7 day
[28] = Toxicity in BALB/c mouse xenografted with human HCC cells assessed as effect on spleen weight index at 1 to 5 mg/kg, iv administered once daily for 7 days; type: organism-based; settings: in vivo, 168 h, dose 1-5 mg/kg, time 7 day
Huh-7 [29] = experiment: Cytotoxicity against human Huh-7 cells assessed as inhibition of cell growth measured after 24 hrs by MTT assay; type: functional, cell-based; settings: Huh-7, 24 h
A549 [30] = experiment: Inhibition of tumor metastasis in cisplatin-resistant human A549 cells assessed as downregulation of HMGB1 protein expression level measured after 24 hrs by western blot analysis; type: functional, cell-based; settings: dose 5-15 µM
[31] = Antitumor activity against human HCC cells xenografted in BALB/c mouse assessed as inhibition of tumor weight at 1 mg/kg, iv administered once daily for 7 days; type: functional; settings: 168 h, time 7 day
[32] = Ratio of cisplatin IC50 to test compound IC50 for human MCF7 cells by MTT assay; type: functional
HepG2 [33] = experiment: Inhibition of tumor metastasis in human HepG2 cells assessed as upregulation of SSAT gene expression level at 5 to 15 uM measured after 24 hrs by qRT-PCR analysis; type: functional, cell-based; settings: dose 5-15 µM

Question: For `NCCCCNCCCCNCCCCN1C(=O)c2cccc3cc(NC(=O)CN)cc(c23)C1=O`, which “Ratio IC50” value [1] is on record?
Answer: 0.99

Question: What about the inhibition in vivo at 3 mg/kg [2] of the same compound?
Answer: 65.5%

Question: And the IC50 (HepG2 [3])?
Answer: 1320 nM

Question: What about the inhibition (A549 [4]) of the same compound?
Answer: Active

Question: And the Activity [5]?
Answer: Non-Toxic

Question: What about the “Ratio IC50” value [6] of the same compound?
Answer: 0.5

Question: What about the “Ratio IC50” value [7] of the same compound?
Answer: 2.76

Question: What about the Activity (HepG2 [8]) of the same compound?
Answer: Active

Question: And the Activity (Huh-7 [9])?
Answer: inactive

Question: What about the inhibition (A549 [10]) of the same compound?
Answer: Active

Question: What about the IC50 (A549 [11]) of the same compound?
Answer: 15500 nM

Question: And the selectivity ratio [12]?
Answer: 6.43

Question: What about the inhibition (HepG2 [13]) of the same compound?
Answer: Active

Question: What about the “fold change (FC)” value [14] of the same compound?
Answer: 1.5

Question: What about the inhibition (Huh-7 [15]) of the same compound?
Answer: Active

Question: And the “Ratio IC50” value [16]?
Answer: 0.67

Question: What about the Drug uptake [17] of the same compound?
Answer: Not Active

Question: And the “Ratio IC50” value (Huh-7 [18])?
Answer: 8.69

Question: And the “Ratio IC50” value (Huh-7 [19])?
Answer: 15.33

Question: And the inhibition (A549 [20])?
Answer: Active

Question: And the “Ratio IC50” value [21]?
Answer: 0.76

Question: What about the inhibition (Huh-7 [22]) of the same compound?
Answer: Active

Question: And the inhibition (A549 [23])?
Answer: Active

Question: And the Drug uptake [24]?
Answer: Active

Question: What about the “Ratio IC50” value [25] of the same compound?
Answer: 0.62

Question: What about the Activity [26] of the same compound?
Answer: Non-Toxic

Question: And the inhibition in vivo at 3 mg/kg [27]?
Answer: 70.1%

Question: And the Activity [28]?
Answer: Non-Toxic

Question: And the IC50 (Huh-7 [29])?
Answer: 980 nM

Question: What about the inhibition (A549 [30]) of the same compound?
Answer: Dose-Dependent Effect

Question: What about the inhibition in vivo at 1 mg/kg [31] of the same compound?
Answer: 58.5%

Question: And the “Ratio IC50” value [32]?
Answer: 0.59

Question: And the inhibition (HepG2 [33])?
Answer: Active
